Measured values from PubChem BioAssay AID651866 (The Scripps Research Institute Molecular Screening Center, 2012).

Biological target: Protein-arginine deiminase type-3 (Homo sapiens) (UniProt Q9ULW8)
Test: PubChem AID 651866
Conditions: recombinant PAD3, citrulline colorimetric, time-dependent inactivation; active compounds read high

Chain of Protein-arginine deiminase type-3 (Homo sapiens) (Q9ULW8 whole entry, looked up): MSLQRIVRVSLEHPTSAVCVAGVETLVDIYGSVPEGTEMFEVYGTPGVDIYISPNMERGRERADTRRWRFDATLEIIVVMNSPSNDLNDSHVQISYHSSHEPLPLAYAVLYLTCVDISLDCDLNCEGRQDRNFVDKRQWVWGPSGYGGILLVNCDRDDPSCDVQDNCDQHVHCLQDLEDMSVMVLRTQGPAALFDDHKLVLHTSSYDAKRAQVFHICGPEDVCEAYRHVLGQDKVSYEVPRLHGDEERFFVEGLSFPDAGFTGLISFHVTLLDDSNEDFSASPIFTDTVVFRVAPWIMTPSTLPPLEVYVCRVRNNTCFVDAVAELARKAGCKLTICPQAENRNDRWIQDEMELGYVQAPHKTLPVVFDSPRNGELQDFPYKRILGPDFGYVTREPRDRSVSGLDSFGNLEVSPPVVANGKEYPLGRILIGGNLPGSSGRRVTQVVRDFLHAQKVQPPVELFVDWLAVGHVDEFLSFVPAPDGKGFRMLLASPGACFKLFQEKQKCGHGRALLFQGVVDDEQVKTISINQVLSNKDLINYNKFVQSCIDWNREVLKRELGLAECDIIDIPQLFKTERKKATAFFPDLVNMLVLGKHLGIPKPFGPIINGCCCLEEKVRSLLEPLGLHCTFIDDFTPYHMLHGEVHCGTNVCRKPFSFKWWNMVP

kinact/KI: 31.7 M⁻¹ s⁻¹
Structure (SMILES): NC1=CC(=O)c2ccc(-c3cccc(C(=O)O)n3)nc2C1=O
